In BigSolDB 2.1:

O=C(O)c1cccnc1Nc1cccc(C(F)(F)F)c1
solubility (mole fraction)
Conditions | 288.15 K | 293.15 K | 298.15 K | 303.15 K | 308.15 K | 313.15 K | 318.15 K | 323.15 K | 328.15 K
in MTBE | 0.0428 | 0.0471 | 0.0505 | 0.0549 | 0.0591 | 0.0663 | 0.073 | 0.08 | 0.0854
in acetone | 0.0273 | 0.0296 | 0.0315 | 0.034 | 0.037 | 0.0418 | 0.048 | 0.053 | 0.0572
in acetonitrile | – | 0.00125 | 0.0018 | 0.00235 | 0.00319 | 0.00437 | 0.00595 | 0.00745 | 0.00898
in cyclohexane | 0.00268 | 0.00379 | 0.00512 | 0.00674 | 0.00887 | 0.0114 | 0.0137 | 0.0158 | 0.0182
in diisopropyl ether | 0.00814 | 0.0119 | 0.0146 | 0.0183 | 0.022 | 0.0262 | 0.0303 | 0.0357 | 0.0424
in ethanol | 0.00748 | 0.00873 | 0.00935 | 0.0113 | 0.0133 | 0.0153 | 0.0177 | 0.0197 | 0.0211
in ethyl acetate | 0.0243 | 0.0261 | 0.0279 | 0.0308 | 0.0346 | 0.0393 | 0.0439 | 0.0494 | 0.0544
in isopropanol | 0.00751 | 0.00844 | 0.00941 | 0.0107 | 0.0131 | 0.0152 | 0.0179 | 0.0209 | 0.0235
in isopropyl acetate | 0.0228 | 0.0264 | 0.029 | 0.0324 | 0.0372 | 0.0435 | 0.05 | 0.0564 | 0.0637
in methanol | 0.00655 | 0.00766 | 0.00862 | 0.00967 | 0.0107 | 0.0118 | 0.0135 | 0.0151 | 0.0171
in n-heptane | 0.00171 | 0.00276 | 0.00404 | 0.00562 | 0.00726 | 0.00951 | 0.0121 | 0.0145 | 0.0172
in n-hexane | 0.00145 | 0.00256 | 0.00382 | 0.00539 | 0.00678 | 0.00896 | 0.011 | 0.0131 | 0.0155
in n-propanol | 0.00879 | 0.00999 | 0.011 | 0.0129 | 0.0147 | 0.0174 | 0.0202 | 0.0232 | 0.0266
in toluene | – | 0.00154 | 0.00242 | 0.00395 | 0.00532 | 0.0073 | 0.00991 | 0.0133 | 0.0172
